Values of other authors, collected in patent US6826488B1, “Crystals, molecular complexes, and methods of developing lead compounds for inhibitors of bacterial IMPDH” (The University of Chicago, priority 2000, dated 2004).

Columns and labels:
bacterial IMPDH enzymes = conditions: bacterial enzymes inhibited by MPA only at very high concentrations
mammalian IMPDH enzymes = conditions: mammalian relative to bacterial IMPDH enzymes

COc1c(C)c2c(c(O)c1C/C=C(\C)CCC(=O)O)C(=O)OC2 [MPA, Mycophenolic acid]
Ki (bacterial IMPDH enzymes): > 500 µM | times more sensitive to inhibition (mammalian vs bacterial IMPDH enzymes) (mammalian IMPDH enzymes): 10-100 times
